Like-named read-outs stand apart in the source and are kept apart here. Positions of bridges follow the written chain, without caps; N, C: chain ends. Residues, ends and D or L forms follow the SMILES beside them. No end group written: not given here.

Common to all, as to type: binding
For one experiment, the target named is T1, FGF-R4 ECD (Homo sapiens, UniProt P22455).
T1 construct: DNA constructs for the extracellular domain (ECD) of human FGF-; HPC4 (C); made in house; host or cells: HEK 293-6E
T1 sequence (P22455 22-369 limits assumed): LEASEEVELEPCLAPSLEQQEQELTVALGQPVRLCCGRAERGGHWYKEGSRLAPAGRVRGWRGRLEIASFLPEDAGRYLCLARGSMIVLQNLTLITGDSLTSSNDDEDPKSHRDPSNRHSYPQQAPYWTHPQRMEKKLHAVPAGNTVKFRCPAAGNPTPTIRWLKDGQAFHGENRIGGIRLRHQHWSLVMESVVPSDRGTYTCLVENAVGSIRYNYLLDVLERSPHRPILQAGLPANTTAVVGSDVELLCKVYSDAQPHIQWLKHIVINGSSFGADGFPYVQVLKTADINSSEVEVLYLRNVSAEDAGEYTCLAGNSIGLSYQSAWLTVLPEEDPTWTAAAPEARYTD
The experiment in a line: single concentration BLI of crude peptides. An outline of the steps:
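Biotinylated FGF-R ECD on streptavidin biosensors was dipped into ~1 μM crude peptide in PBS pH7.4 with 0.05% Tween-20 and 0.01% BSA for association, then into buffer for dissociation, and followed by BLI. Fitted KD values were adjusted for peptide concentration measured by UPLC-CAD.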

A further experiment addresses T2, FGF-R3C ECD (Homo sapiens, UniProt P22607).
T2 sequence (P22607 23-375 limits assumed): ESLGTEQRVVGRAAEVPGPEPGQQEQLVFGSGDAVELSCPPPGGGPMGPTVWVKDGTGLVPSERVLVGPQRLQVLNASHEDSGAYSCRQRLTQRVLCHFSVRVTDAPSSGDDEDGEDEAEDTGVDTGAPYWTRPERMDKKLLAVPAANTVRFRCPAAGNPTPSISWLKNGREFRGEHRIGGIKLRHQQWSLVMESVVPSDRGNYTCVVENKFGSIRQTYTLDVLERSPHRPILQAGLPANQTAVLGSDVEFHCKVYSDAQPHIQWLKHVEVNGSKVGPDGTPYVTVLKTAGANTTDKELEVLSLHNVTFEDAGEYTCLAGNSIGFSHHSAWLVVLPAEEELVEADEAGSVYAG
Description: biochemical. Details: DNA constructs for the extracellular domain (ECD) of human FGF-; HPC4 (C); made in house; host or cells: HEK 293-6E. An outline of the steps:
(§1)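 BLI, streptavidin sensors loaded with biotinylated receptor ECD. Single-point: ~1 μM crude peptide, PBS pH7.4/0.05% Tween-20/0.01% BSA; association then dissociation in buffer. KD corrected for UPLC-CAD-determined concentration.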

The next experiment has as its target T3, FGF-R1C ECD (Homo sapiens, UniProt P11362).
T3 sequence (P11362 22-376 limits assumed): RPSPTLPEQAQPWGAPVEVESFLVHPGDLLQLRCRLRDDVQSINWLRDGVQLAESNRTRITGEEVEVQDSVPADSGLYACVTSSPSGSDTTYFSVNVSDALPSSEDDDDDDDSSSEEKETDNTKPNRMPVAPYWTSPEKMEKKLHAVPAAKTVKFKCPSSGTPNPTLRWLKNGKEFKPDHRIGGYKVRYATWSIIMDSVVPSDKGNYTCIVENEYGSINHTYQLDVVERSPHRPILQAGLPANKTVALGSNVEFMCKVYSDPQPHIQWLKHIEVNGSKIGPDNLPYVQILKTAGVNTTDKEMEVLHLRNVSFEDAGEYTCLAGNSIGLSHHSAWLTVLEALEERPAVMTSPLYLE
The experiment in a line: biochemical. Also on record: DNA constructs for the extracellular domain (ECD) of human FGF-; HPC4 (C); made in house; host or cells: HEK 293-6E. An outline of the steps:
as §1

Setting [1] is: crude NNK peptides, single concentration BLI (Table S3), read-out: KD (4).
Setting [2] is: crude T18 selection 1 (1:1:1) peptides, single concentration BLI (Table S4), read-out: KD (4).

By Kd is commonly meant a measure of binding affinity in units of concentration. Consider `CC[C@H](C)[C@@H]1NC(=O)[C@@H](NC(=O)[C@H](CCSC)NC(C)=O)CSSC[C@@H](C(=O)NCC(=O)N[C@@H](CO)C(=O)NCC(=O)N[C@@H](CO)C(=O)N[C@@H](CC(=O)O)C(=O)N[C@@H](Cc2ccc(O)cc2)C(=O)N[C@@H](CCCCN)C(=O)N[C@@H](CC(=O)O)C(=O)N[C@@H](CC(=O)O)C(=O)N[C@@H](CC(=O)O)C(=O)N[C@@H](CC(=O)O)C(=O)N[C@@H](CCCCN)C(N)=O)NC(=O)[C@H](C(C)C)NC(=O)[C@H](C(C)C)NC(=O)[C@H](Cc2c[nH]c3ccccc23)NC(=O)[C@H](Cc2ccccc2)NC(=O)[C@H](CC(=O)O)NC(=O)[C@H](CO)NC(=O)[C@H](CC(C)C)NC(=O)[C@H](CCCNC(=N)N)NC(=O)[C@H](Cc2c[nH]cn2)NC1=O` (Ac-MCIHRLSDFWVVCGSGSDYKDDDDK-NH2; disulfide 2-13), for which the Kd is 41 nM at FGF-R4 ECD (setting [1]), 49 nM at FGF-R3C ECD and 19 nM on FGF-R1C ECD.

On to `CC[C@H](C)[C@@H]1NC(=O)[C@@H](NC(=O)[C@H](CCSC)NC(C)=O)CSSC[C@@H](C(=O)NCC(=O)N[C@@H](CO)C(=O)NCC(=O)N[C@@H](CO)C(=O)N[C@@H](CC(=O)O)C(=O)N[C@@H](Cc2ccc(O)cc2)C(=O)N[C@@H](CCCCN)C(=O)N[C@@H](CC(=O)O)C(=O)N[C@@H](CC(=O)O)C(=O)N[C@@H](CC(=O)O)C(=O)N[C@@H](CC(=O)O)C(=O)N[C@@H](CCCCN)C(N)=O)NC(=O)[C@H](CCCNC(=N)N)NC(=O)CNC(=O)[C@H](CCCNC(=N)N)NC(=O)[C@H](CC(C)C)NC(=O)[C@H](C(C)C)NC(=O)[C@H](CCCCN)NC(=O)[C@H](Cc2ccc(O)cc2)NC(=O)[C@H](CC(C)C)NC(=O)[C@H](CC(C)C)NC1=O` (Ac-MCILLYKVLRGRCGSGSDYKDDDDK-NH2; disulfide 2-13), for which the Kd on FGF-R4 ECD (setting [1]) was 128 nM; on FGF-R3C ECD it was above 10000 nM; at FGF-R1C ECD, above 10000 nM.

Consider `CSCC[C@H](NC(C)=O)C(=O)N[C@H]1CSSC[C@@H](C(=O)NCC(=O)N[C@@H](CO)C(=O)NCC(=O)N[C@@H](CO)C(=O)N[C@@H](CC(=O)O)C(=O)N[C@@H](Cc2ccc(O)cc2)C(=O)N[C@@H](CCCCN)C(=O)N[C@@H](CC(=O)O)C(=O)N[C@@H](CC(=O)O)C(=O)N[C@@H](CC(=O)O)C(=O)N[C@@H](CC(=O)O)C(=O)N[C@@H](CCCCN)C(N)=O)NC(=O)[C@H](Cc2c[nH]c3ccccc23)NC(=O)[C@H](CC(C)C)NC(=O)[C@H](CCCNC(=N)N)NC(=O)[C@H](Cc2ccc(O)cc2)NC(=O)[C@H](CC(C)C)NC(=O)[C@H](Cc2c[nH]c3ccccc23)NC(=O)[C@H](CC(C)C)NC(=O)[C@H](CC(=O)O)NC(=O)[C@H](CCCCN)NC(=O)[C@H](CO)NC(=O)[C@H](Cc2ccc(O)cc2)NC(=O)[C@H](CCCCN)NC(=O)[C@H](Cc2ccc(O)cc2)NC1=O` (Ac-MCYKYSKDLWLYRLWCGSGSDYKDDDDK-NH2; disulfide 2-16), for which the dissociation constant (Kd) is 22 nM on FGF-R4 ECD (setting [2]), above 10000 nM at FGF-R3C ECD and 502 nM at FGF-R1C ECD.

Regarding `CC[C@H](C)[C@@H]1NC(=O)[C@H](CCCCN)NC(=O)[C@H](Cc2ccc(O)cc2)NC(=O)[C@H](Cc2ccc(O)cc2)NC(=O)[C@H](Cc2c[nH]cn2)NC(=O)[C@H](Cc2c[nH]c3ccccc23)NC(=O)[C@H](CC(C)C)NC(=O)[C@@H](NC(=O)[C@H](CCSC)NC(C)=O)CSSC[C@@H](C(=O)NCC(=O)N[C@@H](CO)C(=O)NCC(=O)N[C@@H](CO)C(=O)N[C@@H](CC(=O)O)C(=O)N[C@@H](Cc2ccc(O)cc2)C(=O)N[C@@H](CCCCN)C(=O)N[C@@H](CC(=O)O)C(=O)N[C@@H](CC(=O)O)C(=O)N[C@@H](CC(=O)O)C(=O)N[C@@H](CC(=O)O)C(=O)N[C@@H](CCCCN)C(N)=O)NC(=O)[C@H](CCCCN)NC(=O)[C@H](CCC(N)=O)NC(=O)[C@H](CCCNC(=N)N)NC(=O)[C@H](CCCNC(=N)N)NC(=O)[C@H](Cc2ccccc2)NC1=O` (Ac-MCLWHYYKIFRRQKCGSGSDYKDDDDK-NH2; disulfide 2-15), the equilibrium dissociation constant (Kd) at FGF-R4 ECD (setting [2]) is 8 nM; at FGF-R3C ECD it was above 10000 nM; on FGF-R1C ECD it was 96 nM.

As to “GSGSDYKDDDDK-NH2 [flag, reference compound]”, the Kd at FGF-R4 ECD, on FGF-R3C ECD and on FGF-R1C ECD was above 10000 nM each time.

As to `CC[C@H](C)[C@@H]1NC(=O)[C@H](Cc2ccccc2)NC(=O)[C@@H]2CCCN2C(=O)[C@H](Cc2ccccc2)NC(=O)[C@H](Cc2c[nH]cn2)NC(=O)[C@H]([C@@H](C)O)NC(=O)[C@H](CC(=O)O)NC(=O)[C@H](Cc2ccccc2)NC(=O)[C@H]([C@@H](C)O)NC(=O)[C@@H](NC(=O)[C@@H](N)CCSC)CSSC[C@@H](C(=O)NCC(=O)N[C@@H](CO)C(=O)NCC(=O)N[C@@H](CO)C(=O)N[C@@H](CC(=O)O)C(=O)N[C@@H](Cc2ccc(O)cc2)C(=O)N[C@@H](CCCCN)C(=O)N[C@@H](CC(=O)O)C(=O)N[C@@H](CC(=O)O)C(=O)N[C@@H](CC(=O)O)C(=O)N[C@@H](CC(=O)O)C(=O)N[C@@H](CCCCN)C(N)=O)NC(=O)[C@H]([C@@H](C)O)NC1=O` (H-MCTFDTHFPFITCGSGSDYKDDDDK-NH2; disulfide 2-13), the results for the Kd at FGF-R4 ECD (setting [1]), on FGF-R3C ECD and at FGF-R1C ECD were above 10000 nM, 287 nM and above 10000 nM, respectively.

For `CC[C@H](C)[C@@H]1NC(=O)[C@H](CCCCN)NC(=O)[C@H](Cc2ccc(O)cc2)NC(=O)[C@H]([C@@H](C)CC)NC(=O)[C@H]([C@@H](C)O)NC(=O)[C@H]([C@@H](C)CC)NC(=O)[C@H](Cc2c[nH]cn2)NC(=O)[C@@H](NC(=O)[C@H](CCSC)NC(C)=O)CSSC[C@@H](C(=O)NCC(=O)N[C@@H](CO)C(=O)NCC(=O)N[C@@H](CO)C(=O)N[C@@H](CC(=O)O)C(=O)N[C@@H](Cc2ccc(O)cc2)C(=O)N[C@@H](CCCCN)C(=O)N[C@@H](CC(=O)O)C(=O)N[C@@H](CC(=O)O)C(=O)N[C@@H](CC(=O)O)C(=O)N[C@@H](CC(=O)O)C(=O)N[C@@H](CCCCN)C(N)=O)NC(=O)[C@H](Cc2ccc(O)cc2)NC(=O)[C@H](CCCNC(=N)N)NC(=O)[C@H](CC(C)C)NC1=O` (Ac-MCHITIYKILRYCGSGSDYKDDDDK-NH2; disulfide 2-13), the dissociation constant (Kd) at FGF-R4 ECD (setting [1]) was 124 nM; on FGF-R3C ECD it was above 10000 nM; on FGF-R1C ECD, above 10000 nM.

`CC[C@H](C)[C@@H]1NC(=O)[C@H](CCC(=O)O)NC(=O)[C@H](CCCNC(=N)N)NC(=O)[C@@H](NC(=O)[C@H](CCSC)NC(C)=O)CSSC[C@@H](C(=O)NCC(=O)N[C@@H](CO)C(=O)NCC(=O)N[C@@H](CO)C(=O)N[C@@H](CC(=O)O)C(=O)N[C@@H](Cc2ccc(O)cc2)C(=O)N[C@@H](CCCCN)C(=O)N[C@@H](CC(=O)O)C(=O)N[C@@H](CC(=O)O)C(=O)N[C@@H](CC(=O)O)C(=O)N[C@@H](CC(=O)O)C(=O)N[C@@H](CCCCN)C(N)=O)NC(=O)[C@H](CCC(N)=O)NC(=O)[C@H](Cc2c[nH]c3ccccc23)NC(=O)[C@H](CC(C)C)NC(=O)[C@H](CCC(N)=O)NC(=O)[C@H](Cc2c[nH]c3ccccc23)NC(=O)[C@H](Cc2ccc(O)cc2)NC(=O)[C@H](CCCNC(=N)N)NC1=O` (Ac-MCREIRYWQLWQCGSGSDYKDDDDK-NH2; disulfide 2-13): the Kd is 27 nM on FGF-R4 ECD (setting [2]), above 10000 nM on FGF-R3C ECD and above 10000 nM on FGF-R1C ECD.

Source of the values: paper PMC10763615, “Identification and engineering of potent cyclic peptides with selective or promiscuous binding through biochemical profiling and bioinformatic data analysis” (RSC Chemical Biology, 2023).
